Data as given in US20090318357A1, “Molecules Preferentially Associated with Effector T Cells or Regulatory T Cells and Methods of Their Use” (Tolerx, Inc., priority 2002, published 2009).

Key:
Format in all cases: cell-based, human
[1] = system: anti-CD3/anti-CD28 stimulated PBLs; experiment: Transcription factor (FOXP3, Tbox21, GATA3) mRNA expression by Real-Time PCR in activated PBL
Procedure: This example describes the effect of TGFβ1 on the expression levels of Tbox 21, GATA3 and FOXP3 expression in anti-CD3/anti-CD28 stimulated PBLs. Real-time PCR was used to quantitate the levels of transcription factor mRNA in the presence and absence of TGFβ1.
PBL were stimulated for 72 hours with anti-CD3/anti-CD28 in the presence or absence of TGFβ1 and total RNA was extracted using a QiganRNeasy Mini Kit according to manufacturer's instructions. RNA was stored at minus 80° C.
cDNA was prepared from RNA using the Applied Biosystems High-Capacity cDNA Archive Kit according to manufacturer's instructions.
One μg cDNA was amplified using Applied Biosystems Assays-on-Demand™ Gene Expression products (i.e., TaqMan Universal PCR Mastermix and Assay-on-Demand solution, including marker specific primers) according to the following protocol, in accordance with manufacturer's instructions. Probe/primer reagents for FOXP3, GATA3 and Tbox21 were obtained from Applied Biosystems via the Assay on Demand program.
For the QPCR reaction, 2.5 μl Assay on Demand reagent (Applied Biosystems) were added to 25 μl TaqMan Master Mix™ and samples brought to a total volume of 50 μl with RNAse-free water. PCR reactions were run under the following conditions: 50° C. for 1 minute, 95° C. for 10 minutes and 40 cycles of 95° C. for 15 seconds followed by 60° C. for 1 minute. 18 sRNA or β-actin was run with every assay as a control; 2.5 μl of primer/probe mix, 25 μl of TaqMan MasterMix™, 22.5 μl RNAse-free water. Reactants were detected using an Applied Biosystems QPCR instrument (i.e., ABI Program 7000 SDS Sequence Detection System). The relative expression of the transcription factors for both TGFβ1-treated and untreated stimulated PBLs was determined. Relative expression was calculated assuming that the levels of transcription factor mRNA in stimulated PBL in the absence of added cytokines was 100%. […]

Th2 cells [2] = experiment: Cytokine production in differentiated Th2 cells (Searchlight ELISA); conditions: percent of untreated control, 7-12 days
Source text: (§1) Differentiated cell lines were produced from cells prepared from human cord blood or peripheral blood CD4+CD45RA+ naïve T cells by a variety of methods, including flow cytometry and magnetic bead separations. Purity of the starting populations was >95%. Cells were then stimulated by CD3 and CD28 antibodies in RPMI 1640 with 10% FCS and 1% Human AB serum with defined mixtures of cytokines and neutralizing antibodies to cytokines to produce the differentiated cell types. Th1 cells were produced by culture with IL12 (62 U/ml) and anti-IL4 (0.2 ug/ml); Th2 cells were produced by culture in IL4(145 U/ml) and anti-IL12 (10 ug/ml) and anti-IFNγ (10 ug/ml); and regulatory T cells were produced by culture in TGFβ (32 U/ml), IL9 (42 U/ml), anti-IL4 (10 ug/ml) and anti-IL12 (10 ug/ml) and anti-IFNγ (10 ug/ml). (Note: anti-IL12 was not used in all experiments). All cultures were supplemented with IL2 (65 U/ml) and IL15 (4500 U/ml). Cells were split into larger culture dishes as warranted by cell division. At the conclusion of one round of cell differentiation (7-12 days), cells were harvested for preparation of total RNA for use in the gene chip experiments.
(§2) Differentiated cells were prepared as described in Example 1. Varying concentrations (0.1 μM, 1.0 μM and 10 μM) of Thioperamide was added at the time of plating. At the conclusion of one round of cell differentiation (7-12 days), cells were assayed for the production of the cytokines, IL-2, IL-4, IL-5, IL-10, IL-12-p70, IL-13, IFN-γ, TNF-alpha, and TGFβ1, by Searchlight™ technology, a chemiluminescent enzyme-linked immunoabsorbant assay (ELISA) according to the manufacturer's instructions, commercially available from Pierce Biotechnology.
(§3) Data are plotted as a percent of control (untreated) assuming that the levels of cytokine production in stimulated differentiated cells in the absence of Thioperamide is 100%.
(§4) Differentiated cells were prepared as described in Example 1. Varying concentrations (1.0 μM, 10.0 μM and 100 μM) of Serotonin was added at the time of plating. At the conclusion of one round of cell differentiation (7-12 days), cells were assayed for the production of the cytokines, IL-2, IL-4, IL-5, IL-10, IL-12-p70, IL-13, IFN-γ, TNFα, and TGFβ1, by ELISA as described in Example 5.
(§5) Data are plotted as a percent of control (untreated) assuming that the levels of cytokine production in stimulated PBL in the absence of Serotonin is 100%.
(§6) Differentiated cells were prepared as described in Example 1. Varying concentrations (0.1 μM, 1.0 μM and 10.0 μM) of Rolipram or Zardaverine was added at the time of plating. At the conclusion of one round of cell differentiation (7-12 days), cells were assayed for the production of the cytokines, IL-2, IL-4, IL-5, IL-10, IL-12-p70, IL-13, IFN-γ, TNFα, and TGFβ1, by ELISA as described in Example 5.
(§7) The results of the effect of Rolipram on the production of cytokines is shown in FIGS. 11A, 11B, and 11C, and the results of the effect of Zardaverine on the production of cytokines is shown in FIGS. 12A, 12B, and 12C. Data are plotted as a percent of control (untreated) assuming that the levels of cytokine production in stimulated PBL in the absence of rolipram or zardaverine is 100%.

TGFβ1-derived Treg cells [3] = experiment: Cytokine production in TGFβ1-derived Treg cells (Searchlight ELISA); conditions: percent of untreated control, 7-12 days
Source text: as §1, §2, §3, §4, §5, §6, §7

Th1 cells [4] = experiment: Proliferation of differentiated Th1 cells (cell count); conditions: re-stimulated with anti-CD3 and anti-CD28, three days, cells counted; vs untreated cells
Source text: (§8) Differentiated cell lines were produced from cells prepared from human cord blood or peripheral blood CD4+CD45RA+ naïve T cells by a variety of methods, including flow cytometry and magnetic bead separations. Purity of the starting populations was >95%. Cells were then stimulated by CD3 and CD28 antibodies in RPMI 1640 with 10% FCS and 1% Human AB serum with defined mixtures of cytokines and neutralizing antibodies to cytokines to produce the differentiated cell types. […]
(§9) Differentiated cell types were prepared as described in Example 1 then cultured in the presence of anti-CD3 and anti-CD28 for seven days. Cells were subsequently re-stimulated with anti-CD3 and anti-CD28, with the addition of Serotonin at 1, 10 and 100 μM, for three days at which time the cells were counted and the data were plotted as a percent of control (untreated cells).
(§10) Differentiated cell types were prepared as described in Example 1 then cultured in the presence of anti-CD3 and anti-CD28 for seven days. Cells were subsequently re-stimulated with anti-CD3 and anti-CD28 (as described in Example 7), with the addition of either Rolipram or Zardaverine at 0.1 μM, 1.0 μM and 10 μM for three days at which time the cells were counted and the data were plotted as a percent of control (untreated cells).

Th1 cells [5] = experiment: Cytokine production in differentiated Th1 cells (Searchlight ELISA); conditions: percent of untreated control, 7-12 days
Source text: as §1, §2, §3, §4, §5, §6, §7

Th2 cells [6] = experiment: Proliferation of differentiated Th2 cells (cell count); conditions: cells counted
Source text: as §8, §9, §10

TGFβ1-derived Treg cells [7] = experiment: Proliferation of TGFβ1-derived Treg cells (cell count); conditions: cells counted; for proliferation of TGFβ1-derived Treg cells: re-stimulated with anti-CD3 and anti-CD28, three days, vs untreated cells
Source text: as §1, §9, §10

[8] = mRNA, among the concentrations tested
[9] = mRNA, over the concentrations tested, control = 100%
[10] = PBL stimulated 72 hours with anti-CD3/anti-CD28, mRNA, FIG. 1

Row | Molecule | FOXP3 expression relative to control [1, 9] | GATA3 expression relative to control [1, 9] | Tbox21 expression relative to control [1, 9] | production of IL-4 (Th2 cells [2]) | production of IL-5 (Th2 cells [2]) | production of IL-13 (Th2 cells [2]) | production of TGFβ1 (TGFβ1-derived Treg cells [3]) | proliferation of Th1 cells (Th1 cells [4]) | production of IL-10 (Th1 cells [5]) | proliferation of TGFβ1-derived Treg cells (TGFβ1-derived Treg cells [7]) | production of IL-10 (Th2 cells [2]) | production of IFN-gamma (TGFβ1-derived Treg cells [3]) | production of IL-2 (TGFβ1-derived Treg cells [3]) | production of IFN-gamma (Th1 cells [5]) | production of TNF-alpha (Th1 cells [5]) | other results
1 | CC(C)Oc1ccc2c(=O)c3cc(C(=O)O)ccc3oc2c1 [AH6809] | trend toward increasing | unchanged |  |  |  |  |  |  |  |  |  |  |  |  |  | Tbox21 expression relative to untreated control ([1]; at 0.1 μM): increased; Tbox21 expression relative to untreated control ([1]; at 10 μM): decreased; concentration of maximal FOXP3 expression [1, 8]: 0.1 µM
2 | COc1ccc(C2CNC(=O)C2)cc1OC1CCCC1 (stereo not drawn) [Rolipram] | increased expression | increased expression | neither of these inhibitors had more than a modest effect | significantly increased | significantly increased | significantly increased | significantly increased | reduce | significantly reduced | reduce |  |  |  |  |  | proliferation of Th2 cells (Th2 cells [6]; re-stimulated with anti-CD3 and anti-CD28, three days, vs untreated cells): reduce; proliferation of TGFβ1-derived Treg cells compared with Th1 and Th2 cells (TGFβ1-derived Treg cells [7]; 0.1, 1.0 and 10 μM, three days): may have been more strongly affected
3 | NCCc1c[nH]c2ccc(O)cc12 [Serotonin] | increase | increase | increase | significantly reduced | significantly reduced | significantly reduced | significantly reduced | no proliferative effect | significantly reduced | no proliferative effect | no effect | significantly reduced | significantly reduced | significantly reduced | significantly reduced | concentration of maximal GATA3 induction [1, 8]: 10.0 µM; concentration of maximal Tbox 21 induction [1, 8]: 1.0 µM; production of IL-2 (Th1 cells [5]): significantly reduced; production of IL-12 (Th1 cells [5]): significantly reduced; increase of proliferation of Th2 cells compared to untreated control cells (Th2 cells [6]; at each concentration tested (1, 10 and 100 μM), three days): 50%
4 | S=C(NC1CCCCC1)N1CCC(c2cnc[nH]2)CC1 [Thioperamide] |  |  | relatively unchanged | significantly increased | significantly increased | significantly increased | significantly increased |  |  |  | significantly reduced | significantly increased | significantly increased | significantly induce | significantly induce | FOXP3 expression relative to control ([1]; at 10 μM): moderate increase; GATA3 expression relative to control ([1]; at 10 μM): moderate increase; production of IL-4 (TGFβ1-derived Treg cells [3]): significantly reduced; production of IL-10 (TGFβ1-derived Treg cells [3]): significantly increased; production of IL-13 (Th1 cells [5]): significantly reducing
5 | TGFβ1: Transforming growth factor, beta 1; secreted protein added to stimulated PBL |  |  |  |  |  |  |  |  |  |  |  |  |  |  |  | FOXP3 expression relative to an untreated control [1, 10]: approximately 2.5 fold; GATA3 expression relative to an untreated control [1, 10]: approximately 2 fold
